For the assay, the system named is P815. The experiment in a line: Antiproliferative activity against mouse P815 cells assessed as incorporation of [3H]thymidine after 18 hrs by liquid scintillation counting. Type of assay: functional, cell-based.

In brackets after ≈: the same amount, converted by molar mass.

Usually IC50 stands for the concentration needed to halve the response being measured. Turning to `Cc1cc(=O)c2c(O)cc3cc4c(c(O)c3c2o1)C(=O)C=C4` [EUPLECTIN], the IC50 stood at 1.67 µg/mL (≈ 5.68 µM).
